From ChEMBL document CHEMBL1201862, “PubChem BioAssay data set” (2004)
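Cultured in 96-well plates, cells were exposed to test compound for 48 hours across five concentrations. At the GI50, growth is halved.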 Activity calls are given as the source filed them. Rule as the data show it: active = GI50 up to about 1.1 µM and inactive = higher.

Legend:
Assay in all cases: NCI anticancer screen, dose series, 48 h
[1] = test system: A498
[2] = test system: A549
[3] = test system: DU-145
[4] = test system: HOP-92
[5] = test system: LOX IMVI
[6] = test system: MDA-N
[7] = test system: MOLT-4
[8] = test system: NCI-H460
[9] = test system: NCI-H522
[10] = test system: NCI/ADR-RES
[11] = test system: OVCAR-8
[12] = test system: SF-268
[13] = test system: SK-MEL-2
[14] = test system: SNB-75
[15] = test system: T47D
[16] = test system: U-251
[17] = test system: UACC-62
[18] = test system: MCF7

Row | Structure (SMILES) | GI50 [1] | GI50 [2] | GI50 [3] | GI50 [4] | GI50 [5] | GI50 [6] | GI50 [7] | GI50 [8] | GI50 [9] | GI50 [10] | GI50 [11] | GI50 [12] | GI50 [13] | GI50 [14] | GI50 [15] | GI50 [16] | GI50 [17] | GI50 [18]
1 | CCOC(=O)c1c(N2CCCC2)ncn(-c2ccccc2)c1=S | > 100 µM (inactive) | > 100 µM (inactive) | > 100 µM (inactive) | > 100 µM (inactive) | > 100 µM (inactive) | > 100 µM (inactive) | > 100 µM (inactive) | > 100 µM (inactive) | > 100 µM (inactive) | > 100 µM (inactive) | > 100 µM (inactive) | 28.4 µM (inactive) | > 100 µM (inactive) | > 100 µM (inactive) | > 100 µM (inactive) | > 100 µM (inactive) | > 100 µM (inactive) | 
2 | Cc1ccc(N(C)S(=O)(=O)c2ccccc2)cc1 |  | > 100 µM (inactive) | > 100 µM (inactive) |  | > 100 µM (inactive) | > 100 µM (inactive) | 19 µM (inactive) | 87.9 µM (inactive) | > 100 µM (inactive) | > 100 µM (inactive) | > 100 µM (inactive) | > 100 µM (inactive) | > 100 µM (inactive) | > 100 µM (inactive) | 47.9 µM (inactive) | > 100 µM (inactive) | 84.5 µM (inactive) | > 100 µM (inactive)
3 | CCCCCCCCCCOC1C(C(C)OCCCN(C)C)OC2OC3(CCCCC3)OC21 (stereo not given) |  | 15.4 µM (inactive) | 17.1 µM (inactive) | 3.4 µM (inactive) | 1.93 µM (inactive) | 4.94 µM (inactive) | 12.9 µM (inactive) | 3.08 µM (inactive) | 17.9 µM (inactive) | 17 µM (inactive) | 18.8 µM (inactive) | 15.3 µM (inactive) | 15.8 µM (inactive) | 5.48 µM (inactive) | 18.1 µM (inactive) | 14.5 µM (inactive) | 13.3 µM (inactive) | 26.2 µM (inactive)
4 | Cc1nc(C(N)=S)sc1C(=O)C/C(=N/N)C(=O)Nc1cccc(Cl)c1C | > 100 µM (inactive) | > 100 µM (inactive) |  | > 100 µM (inactive) | > 100 µM (inactive) | > 100 µM (inactive) | > 100 µM (inactive) | > 100 µM (inactive) | > 100 µM (inactive) | > 100 µM (inactive) | > 100 µM (inactive) | > 100 µM (inactive) | > 100 µM (inactive) | > 100 µM (inactive) | > 100 µM (inactive) | > 100 µM (inactive) | > 100 µM (inactive) | > 100 µM (inactive)
5 | Cc1c(C)c2c(c(N)c1C#N)C(=O)N(NC(=S)Nc1ccccc1)C2=O |  | > 100 µM (inactive) | > 100 µM (inactive) | > 100 µM (inactive) |  | > 100 µM (inactive) | 20.3 µM (inactive) | 61.2 µM (inactive) | 52.7 µM (inactive) | 71.3 µM (inactive) | 45 µM (inactive) | 31.4 µM (inactive) | > 100 µM (inactive) | 39 µM (inactive) | > 100 µM (inactive) | > 100 µM (inactive) | > 100 µM (inactive) | > 100 µM (inactive)
6 | CCN(CCCOc1ccccc1)CCN(CC)CCCOc1ccccc1 |  | 12.8 µM (inactive) | 10.9 µM (inactive) |  | 10.8 µM (inactive) |  | 2.57 µM (inactive) | 8.38 µM (inactive) | 14.2 µM (inactive) | 20 µM (inactive) | 15.7 µM (inactive) | 12.6 µM (inactive) | 17.9 µM (inactive) | 21.8 µM (inactive) |  | 12.9 µM (inactive) | 14.2 µM (inactive) | 30.8 µM (inactive)
7 | Oc1ccc2ccccc2c1/N=N/c1cc(Cl)ccc1Cl |  | 17 µM (inactive) |  | 22.3 µM (inactive) |  | 27.5 µM (inactive) | 15.4 µM (inactive) |  | 17.1 µM (inactive) | 31.6 µM (inactive) | 10.4 µM (inactive) | 17.1 µM (inactive) | 28.4 µM (inactive) | 11.3 µM (inactive) |  | 9.16 µM (inactive) | 15.9 µM (inactive) | 
8 | COc1ccc(-c2c3c(n(C4OC(CO)C(O)C(O)C4O)c(=S)c2C#N)CCCC3)cc1 (stereo not given) | > 100 µM (inactive) | > 100 µM (inactive) |  |  | > 100 µM (inactive) | > 100 µM (inactive) | 73.1 µM (inactive) | > 100 µM (inactive) |  | > 100 µM (inactive) | > 100 µM (inactive) |  | > 100 µM (inactive) | 0.355 µM (active) | 58.5 µM (inactive) |  | > 100 µM (inactive) | > 100 µM (inactive)
9 | CC[C@H](CO)Nc1nc(NCc2ccccc2)c2ncn(C(C)C)c2n1 [SELICICLIB] | 48.1 µM (inactive) | 13.6 µM (inactive) | 16.9 µM (inactive) | 50.9 µM (inactive) | 14 µM (inactive) |  | 25.1 µM (inactive) | 27.9 µM (inactive) | 16.4 µM (inactive) | 6.97 µM (inactive) |  | 19.8 µM (inactive) | 17.5 µM (inactive) | 11.3 µM (inactive) | 16.3 µM (inactive) | 53.8 µM (inactive) | 8.07 µM (inactive) | 13.5 µM (inactive)
10 | Cc1ccc(/C=N/n2c(=O)[nH]c3ccccc3c2=O)cc1 | > 100 µM (inactive) | > 100 µM (inactive) | > 100 µM (inactive) | > 100 µM (inactive) | > 100 µM (inactive) | > 100 µM (inactive) | > 100 µM (inactive) | > 100 µM (inactive) |  |  |  | > 100 µM (inactive) | > 100 µM (inactive) |  | > 100 µM (inactive) | > 100 µM (inactive) | > 100 µM (inactive) | > 100 µM (inactive)
11 | O=[N+]([O-])c1cccc(-c2nc(-c3ccccc3)c(-c3ccccc3)[nH]2)c1 | > 100 µM (inactive) | > 100 µM (inactive) | > 100 µM (inactive) |  | > 100 µM (inactive) | > 100 µM (inactive) | > 100 µM (inactive) | > 100 µM (inactive) | > 100 µM (inactive) | > 100 µM (inactive) | > 100 µM (inactive) | > 100 µM (inactive) | > 100 µM (inactive) |  | > 100 µM (inactive) | > 100 µM (inactive) | > 100 µM (inactive) | > 100 µM (inactive)
12 | Cc1ccc(S(=O)(=O)N(CCNC(=O)c2cccc(O)c2O)c2cc3c4c(c2)Oc2cccc5c2C4(C)c2c(cccc2O3)O5)cc1 | 58.6 µM (inactive) | 20.9 µM (inactive) | > 100 µM (inactive) |  | 6.08 µM (inactive) | 6.93 µM (inactive) | > 100 µM (inactive) | > 100 µM (inactive) |  | 2.54 µM (inactive) | > 100 µM (inactive) | 15.1 µM (inactive) | > 100 µM (inactive) | 10.9 µM (inactive) | 6.17 µM (inactive) | 8.83 µM (inactive) | 20.8 µM (inactive) | 29.9 µM (inactive)
13 | O=C1/C(=C/c2cccs2)NC(=S)N1CN1CCCC(CO)C1 (stereo not given) | 32.2 µM (inactive) | > 100 µM (inactive) | > 100 µM (inactive) | > 100 µM (inactive) | > 100 µM (inactive) | > 100 µM (inactive) | > 100 µM (inactive) |  |  | > 100 µM (inactive) | > 100 µM (inactive) | > 100 µM (inactive) | > 100 µM (inactive) | > 100 µM (inactive) |  | > 100 µM (inactive) | > 100 µM (inactive) | > 100 µM (inactive)
14 | COc1ccc(Nc2nc3ccc(C(F)(F)F)cc3nc2C(=O)O)cc1OC | 27.9 µM (inactive) |  | 28.6 µM (inactive) |  | 28.8 µM (inactive) | 34.7 µM (inactive) | 16.1 µM (inactive) | 21.2 µM (inactive) | 25.8 µM (inactive) | 20.2 µM (inactive) | 23.2 µM (inactive) | 34.1 µM (inactive) | 17.2 µM (inactive) | 35.8 µM (inactive) |  | 27.4 µM (inactive) | 21.7 µM (inactive) | 33.9 µM (inactive)
15 | CCOC(=O)C1(Cc2ccc3c(c2)CCC3)Cc2cc3c(cc2C1)CCC3 | 37.5 µM (inactive) | 35.9 µM (inactive) | 53 µM (inactive) |  | 15.4 µM (inactive) | 37 µM (inactive) | 11.5 µM (inactive) | 27.5 µM (inactive) | 25.1 µM (inactive) | 78.5 µM (inactive) | 42.5 µM (inactive) | 53.2 µM (inactive) | 32.6 µM (inactive) | 75.5 µM (inactive) | 17.7 µM (inactive) | 32.3 µM (inactive) | 30.6 µM (inactive) | 16.4 µM (inactive)
16 | N/C(=N\Nc1cccc(Cl)c1)c1cccnc1 | 22.2 µM (inactive) | 52.7 µM (inactive) | 82.2 µM (inactive) | > 68.7 µM (inactive) | 50 µM (inactive) |  | 28.3 µM (inactive) | 35.2 µM (inactive) | 29.6 µM (inactive) | 38.7 µM (inactive) | > 78.3 µM (inactive) | 65.3 µM (inactive) | 36.9 µM (inactive) | 29.7 µM (inactive) | 18.9 µM (inactive) | 41.8 µM (inactive) | 22.8 µM (inactive) | 38.7 µM (inactive)
17 | COC(=O)C(=O)C(C(=O)C(=O)Nc1ccc(C)c(C)c1)c1nc2ccc([N+](=O)[O-])cc2nc1O (stereo not given) | > 100 µM (inactive) | > 100 µM (inactive) |  | > 100 µM (inactive) | > 100 µM (inactive) | > 100 µM (inactive) | > 100 µM (inactive) | > 100 µM (inactive) | 48.4 µM (inactive) | > 100 µM (inactive) | > 100 µM (inactive) | > 100 µM (inactive) | > 100 µM (inactive) | > 100 µM (inactive) | > 100 µM (inactive) | > 100 µM (inactive) | > 100 µM (inactive) | > 100 µM (inactive)
